Results on two compounds are retold here after patent US4812483A, “Insecticidal alkenes” (Imperial Chemical Industries PLC, priority 1985, dated 1989).

For orientation: mortality means the share of the test organisms that died.

Format in all cases: in vivo
Test [1] concerns Tetranychus urticae (red spider mites - adult). Nature of the test: Contact test, mortality of red spider mites (TU). To be noted: 72 h, French bean leaf, 3 days, read-out: grading of mortality, TU. How it is done:
(§1) The activity of the compound was determined using a variety of insect pests. The compound was used in the form of liquid preparations containing 500 parts per million (ppm) by weight of the compound. The preparations were made by dissolving the compound in acetone and diluting the solutions with water containing 0.01% by weight of a wetting agent sold under the trade name "LISSAPOL" NX until the liquid preparations contained the required concentration of the compound. "Lissapol" is a Registered Trade Mark.
(§2) The test procedure adopted with regard to each pest was basically the same and comprised supporting a number of the pests on a medium which was usually a host plant or a foodstuff on which the pests feed, and treating either or both the pests and the medium with the preparations. The mortality of the pests was then assessed at periods usually varying from one to three days after the treatment.
(§3) The results of the tests are given in Table III for each of the compounds, at the rate in parts per million given in the second column as a grading of mortality designated as A, B or C wherein A indicates 80-100% mortality or knockdown, B indicates 50-79% mortality or knockdown and C indicates less than 50% mortality or knockdown.
(§4) In Table III the pest organism used is designated by a letter code and the pests species, the support medium or food, and the type and duration of test is given in Table II.
(red spider mites - adult)

A further test relates to Myzus persicae (aphids). The test is described as follows: Contact test, mortality of aphids (MP). To be noted: 48 h, leaf, 2 days, read-out: grading of mortality, MP. The procedure: as §1, §2, §3, §4
Test [2] relates to Nilaparvata lugens (green leaf hopper). Nature of the test: Contact test, mortality of Nilaparvata lugens (NL). As to conditions: 144 h, cabbage leaf, 6 days, read-out: grading of mortality, NL. How it is done: as §1, §2, §3, §4
For test [3], the system named is Musca domestica (houseflies - adults). Nature of the test: Contact test, mortality of houseflies (MD). As to conditions: 24 h, cotton wool/sugar, 1 day, read-out: grading of mortality, MD. How it is done:
as §1, §2, §3, §4

The subject of test [4] is Blattella germanica (cockroach nymphs). Nature of the test: Residual test, mortality of cockroach nymphs (BG). As to conditions: 72 h, plastic pot, 3 days, read-out: grading of mortality, BG. How it is done:
as §1, §2, §3, §4

The test system of test [5] is Heliothis viriscens (tobacco budworm). Nature of the test: whole plant or invertebrate. To be noted: in Gossypium hirsutum, 72 h, read-out: grading of mortality, HV. The procedure:
as §1, §2, §3, §4

Test [6] concerns Chilo partellurs (Stem borers). Nature of the test: Residual test, mortality of stem borers (CP). As to conditions: 72 h, oil seed rape leaf, 3 days, read-out: grading of mortality, CP. How it is done:
as §1, §2, §3, §4

Test [7] deals with Diabrotica balteata (rootworm larvae). The test is described as follows: Residual test, mortality of rootworm larvae (DB). As to conditions: 72 h, filter paper/maize seed, 3 days, read-out: grading of mortality, DB. The procedure:
as §1, §2, §3, §4

Turning to `C=CC1(COCc2cccc(Oc3ccccc3)c2)CC1` [Compound 6, 1-(3-phenoxybenzyloxymethyl)-1-vinylcyclopropane], the mortality at 500 ppm in test [1] was less than 50%; in the test with Myzus persicae (aphids), less than 50%; in test [2] it was 50 to 79%; in test [3], less than 50%; in test [4], less than 50%; in test [5], less than 50%. The mortality at 500 ppm in test [6] and in test [7] was less than 50% throughout.
As for `CC(C)(/C=C/Br)COCc1cccc(Oc2ccccc2)c1` [Compound 7, E-2,2-dimethyl-1-(3-phenoxybenzyloxy)-4-bromobut-3-ene], the mortality at 500 ppm in test [1] was less than 50%; with Myzus persicae (aphids), less than 50%; in test [2], 50 to 79%; in test [3], less than 50%; in test [4], less than 50%; in test [5], less than 50%. Also, the mortality at 500 ppm in test [6] and in test [7] was less than 50% in each case.
